# Reference: ChEMBL document CHEMBL1201862, “PubChem BioAssay data set” (2004)
#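 Grown in 96-well plates, cells were treated for 48 hours with each compound at five concentrations. Insufficient inhibition: endpoint recorded as highest concentration tested. GI50 is the concentration that inhibits growth by half.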 Calls of active or inactive are those of the source. Cut-off read from the data, not from the text of the source: active = GI50 up to about 1.1 µM and inactive = higher.
# Experiments:
# Experiment in all cases: NCI-60 cell line screen, 48 h
# 786-0 = system: 786-0
# A498 = system: A498
# A549 = system: A549
# ACHN = system: ACHN
# BT-549 = system: BT-549
# CAKI-1 = system: CAKI-1
# CCRF-CEM = system: CCRF-CEM
# COLO 205 = system: COLO 205
# DLD-1 = system: DLD-1
# DMS-114 = system: DMS-114
# DMS-273 = system: DMS-273
# DU-145 = system: DU-145
# EKVX = system: EKVX
# HCC 2998 = system: HCC 2998
# HCT-116 = system: HCT-116
# HCT-15 = system: HCT-15
# HL-60 = system: HL-60
# HOP-62 = system: HOP-62
# HOP-92 = system: HOP-92
# HT-29 = system: HT-29
# Hs-578T = system: Hs-578T
# IGROV-1 = system: IGROV-1
# K562 = system: K562
# KM12 = system: KM12
# LOX IMVI = system: LOX IMVI
# LXFL 529 = system: LXFL 529
# M14 = system: M14
# M19-MEL = system: M19-MEL
# MCF7 = system: MCF7
# MDA-MB-231 = system: MDA-MB-231
# MDA-MB-435 = system: MDA-MB-435
# MDA-N = system: MDA-N
# MOLT-4 = system: MOLT-4
# Malme-3M = system: Malme-3M
# NCI-H226 = system: NCI-H226
# NCI-H23 = system: NCI-H23
# NCI-H460 = system: NCI-H460
# NCI-H522 = system: NCI-H522
# OVCAR-3 = system: OVCAR-3
# OVCAR-4 = system: OVCAR-4
# OVCAR-5 = system: OVCAR-5
# OVCAR-8 = system: OVCAR-8
# PC-3 = system: PC-3
# RPMI-8226 = system: RPMI-8226
# RXF 393 = system: RXF 393
# RXF 631 = system: RXF 631
# SF-268 = system: SF-268
# SF-295 = system: SF-295
# SF-539 = system: SF-539
# SK-MEL-28 = system: SK-MEL-28
# SK-MEL-2 = system: SK-MEL-2
# SK-MEL-5 = system: SK-MEL-5
# SK-OV-3 = system: SK-OV-3
# SN12C = system: SN12C
# SNB-19 = system: SNB-19
# SNB-75 = system: SNB-75
# SNB-78 = system: SNB-78
# SR = system: SR
# SW-620 = system: SW-620
# T47D = system: T47D
# TK-10 = system: TK-10
# U-251 = system: U-251
# UACC-257 = system: UACC-257
# UACC-62 = system: UACC-62
# UO-31 = system: UO-31
# XF498 = system: XF498
# HOP-18 = system: HOP-18
# NCI/ADR-RES = system: NCI/ADR-RES
structure (smiles),measurement,setting,value
C=C1C(=O)OC2/C=C(\C)C3OC3/C=C(/C(=O)OC)C(OC(C)=O)C(OC(=O)C(C)(O)C(C)OC(C)=O)C12 (configuration not stated),GI50,786-0,2.22 µM (inactive)
same,GI50,A498,3.24 µM (inactive)
same,GI50,A549,14.6 µM (inactive)
same,GI50,ACHN,3.78 µM (inactive)
same,GI50,BT-549,1.04 µM (active)
same,GI50,CAKI-1,4.36 µM (inactive)
same,GI50,CCRF-CEM,0.305 µM (active)
same,GI50,COLO 205,1.29 µM (inactive)
same,GI50,DLD-1,2.39 µM (inactive)
same,GI50,DMS-114,1.15 µM (inactive)
same,GI50,DMS-273,1.57 µM (inactive)
same,GI50,DU-145,> 10 µM (inactive)
same,GI50,EKVX,10.5 µM (inactive)
same,GI50,HCC 2998,3.83 µM (inactive)
same,GI50,HCT-116,1.27 µM (inactive)
same,GI50,HCT-15,6.24 µM
same,GI50,HL-60,0.308 µM (active)
same,GI50,HOP-62,20.8 µM (inactive)
same,GI50,HOP-92,1.9 µM (inactive)
same,GI50,HT-29,1.29 µM (inactive)
same,GI50,Hs-578T,6.21 µM (inactive)
same,GI50,IGROV-1,1.98 µM (inactive)
same,GI50,K562,0.741 µM (active)
same,GI50,KM12,2.49 µM (inactive)
same,GI50,LOX IMVI,1.53 µM (inactive)
same,GI50,LXFL 529,1.1 µM (active)
same,GI50,M14,2.39 µM (inactive)
same,GI50,M19-MEL,2.39 µM (inactive)
same,GI50,MCF7,0.736 µM (active)
same,GI50,MDA-MB-231,8.93 µM (inactive)
same,GI50,MDA-MB-435,2.03 µM (inactive)
same,GI50,MDA-N,2.69 µM (inactive)
same,GI50,MOLT-4,0.647 µM (active)
same,GI50,Malme-3M,2.14 µM (inactive)
same,GI50,NCI-H226,6.89 µM (inactive)
same,GI50,NCI-H23,2.5 µM (inactive)
same,GI50,NCI-H460,3.45 µM (inactive)
same,GI50,NCI-H522,0.284 µM (active)
same,GI50,OVCAR-3,3.13 µM (inactive)
same,GI50,OVCAR-4,3.5 µM (inactive)
same,GI50,OVCAR-5,5.58 µM (inactive)
same,GI50,OVCAR-8,1.4 µM (inactive)
same,GI50,PC-3,3.96 µM (inactive)
same,GI50,RPMI-8226,0.92 µM (active)
same,GI50,RXF 393,0.501 µM (active)
same,GI50,RXF 631,2.55 µM (inactive)
same,GI50,SF-268,5.55 µM (inactive)
same,GI50,SF-295,9.2 µM (inactive)
same,GI50,SF-539,2.11 µM (inactive)
same,GI50,SK-MEL-28,2.23 µM (inactive)
same,GI50,SK-MEL-2,4.59 µM (inactive)
same,GI50,SK-MEL-5,2.5 µM (inactive)
same,GI50,SK-OV-3,18.7 µM (inactive)
same,GI50,SN12C,2.67 µM (inactive)
same,GI50,SNB-19,14.5 µM (inactive)
same,GI50,SNB-75,2.81 µM (inactive)
same,GI50,SNB-78,2.53 µM (inactive)
same,GI50,SR,0.652 µM (active)
same,GI50,SW-620,0.796 µM (active)
same,GI50,T47D,6.3 µM (inactive)
same,GI50,TK-10,1.83 µM (inactive)
same,GI50,U-251,3.03 µM (inactive)
same,GI50,UACC-257,0.679 µM (active)
same,GI50,UACC-62,1.7 µM (inactive)
same,GI50,UO-31,6.52 µM (inactive)
same,GI50,XF498,1.96 µM (inactive)
CC(C)=CCC1=C(O)C(=O)c2ccccc2C1=O [LAPACHOL],GI50,A498,60.4 µM (inactive)
same,GI50,BT-549,51.8 µM (inactive)
same,GI50,CAKI-1,55 µM (inactive)
same,GI50,DMS-114,60.3 µM (inactive)
same,GI50,DU-145,36.9 µM (inactive)
same,GI50,EKVX,78.7 µM (inactive)
same,GI50,HCC 2998,86.3 µM (inactive)
same,GI50,HOP-18,15.2 µM (inactive)
same,GI50,HOP-92,79.6 µM (inactive)
same,GI50,Hs-578T,34.8 µM (inactive)
same,GI50,MCF7,24.4 µM (inactive)
same,GI50,MDA-MB-231,8.53 µM (inactive)
same,GI50,MDA-MB-435,18.5 µM (inactive)
same,GI50,MDA-N,17.4 µM (inactive)
same,GI50,NCI-H226,53.8 µM (inactive)
same,GI50,NCI/ADR-RES,32.3 µM (inactive)
same,GI50,OVCAR-4,33.7 µM (inactive)
same,GI50,OVCAR-5,> 100 µM (inactive)
same,GI50,PC-3,2.92 µM (inactive)
same,GI50,RXF 631,22.2 µM (inactive)
same,GI50,SK-MEL-2,35.5 µM (inactive)
same,GI50,SK-MEL-5,11.7 µM (inactive)
same,GI50,SNB-75,57.1 µM (inactive)
same,GI50,SNB-78,> 100 µM (inactive)
same,GI50,T47D,61.4 µM (inactive)
same,GI50,XF498,42.4 µM (inactive)
